Patent publication US9833455B2, “Preparation and methods of use for ortho-aryl 5-membered heteroaryl-carboxamide containing multi-targeted kinase inhibitors” (Spacefill Enterprises LLC, priority 2011, dated 2017)
Read-outs that look alike come from different tables or passages of the source. One block for each molecule: values may come before it.

Legend:
[1] = test system: panel of kinases; assay: Nanosyn kinase panel profiling (panels of 29, 220, 230, 250 kinases), whole panel; format: biochemical; conditions: for activity against any of the kinases tested: panel of 29 selected kinases
Procedure: “Inhibiting kinase activity” means to decrease the production of an phosphor-peptide by a particular kinase that can be separated by analytical techniques. […] Profiling data in this application were determined using these techniques at Nanosyn Inc. IC50 data were provided by Reaction Biology Inc using a P33 radiolabeled kinase assay.
These compounds were profiled against a panel of 230 kinases (Nanosyn Inc.).
A total of 15 new inhibitors were designed, prepared, and evaluated against a panel of 29 selected kinases in order to explore the applicability, SAR trends, and the tunability of this scaffold that could be imposed but this unique geometry, Table 21. Inhibitors I-1 to 1-12 all retained the 2-CF3-5-(4-F-phenyl) imidazole-4-carboxamide scaffold previously described (Deitrich, 2010), but explored different Hinge-Gatekeeper Motifs (HGM).
To further test the breadth of applicability and ability to achieve selectivity with inhibitors that share this scaffold geometry, I-11 and I-12 were evaluated against a larger panel of 220 high interest kinases, Table-23.

[2] = molecular target: T1, BRAF(V600E) (Homo sapiens, UniProt P15056, V600E); assay: LanthaScreen assay, side by side IC50 comparison; format: biochemical
Procedure: (§1) To test both our binding mode hypothesis and to see if these structural differences could be taken exploited to impart selectivity and potency improvements, I-13, in which the lipophilic 2-trifluoromethy substituent on imidazole ring of inhibitor KIN-035, was replaced by the polar 2-methylsulfonyl substitutent. […] To address this issue, real time kinetic experiments were performed.

[3] = molecular target: T1, BRAF(V600E); assay: Real time kinetic experiments; format: biochemical
Procedure: as §1

[4] = molecular target: wild type B-Raf (Homo sapiens, UniProt P15056); assay: LanthaScreen assay, IC50; format: biochemical
Procedure: as §1

[5] = molecular target: T2, PDGFRB (Homo sapiens, UniProt P09619); conditions: 1 μM, duplicate, without preincubation; cited from earlier work
T2 construct: literature Ambit Biosciences

[6] = molecular target: T3, JAK2 (catalytic) (Homo sapiens, UniProt O60674); conditions: 1 μM, duplicate, without preincubation; cited from earlier work
T3 construct: catalytic; literature Ambit Biosciences

[7] = molecular target: T4, BRAF (Homo sapiens, UniProt P15056); conditions: 1 μM, duplicate, without preincubation; cited from earlier work
T4 construct: literature Ambit Biosciences

[8] = molecular target: T5, ULK2 (Homo sapiens, UniProt Q8IYT8); conditions: 1 μM, duplicate, without preincubation; cited from earlier work
T5 construct: literature Ambit Biosciences

[9] = molecular target: T6, PDGFRA (Homo sapiens, UniProt P16234); conditions: 1 μM, duplicate, without preincubation; cited from earlier work
T6 construct: literature Ambit Biosciences

[10] = molecular target: T7, CDK11 (Homo sapiens, UniProt Q9BWU1); conditions: 1 μM, duplicate, without preincubation; cited from earlier work
T7 construct: literature Ambit Biosciences

[11] = molecular target: T8, PRKCE (Homo sapiens, UniProt Q02156); conditions: 1 μM, duplicate, without preincubation; cited from earlier work
T8 construct: literature Ambit Biosciences
T8 sequence (Q02156 1-737): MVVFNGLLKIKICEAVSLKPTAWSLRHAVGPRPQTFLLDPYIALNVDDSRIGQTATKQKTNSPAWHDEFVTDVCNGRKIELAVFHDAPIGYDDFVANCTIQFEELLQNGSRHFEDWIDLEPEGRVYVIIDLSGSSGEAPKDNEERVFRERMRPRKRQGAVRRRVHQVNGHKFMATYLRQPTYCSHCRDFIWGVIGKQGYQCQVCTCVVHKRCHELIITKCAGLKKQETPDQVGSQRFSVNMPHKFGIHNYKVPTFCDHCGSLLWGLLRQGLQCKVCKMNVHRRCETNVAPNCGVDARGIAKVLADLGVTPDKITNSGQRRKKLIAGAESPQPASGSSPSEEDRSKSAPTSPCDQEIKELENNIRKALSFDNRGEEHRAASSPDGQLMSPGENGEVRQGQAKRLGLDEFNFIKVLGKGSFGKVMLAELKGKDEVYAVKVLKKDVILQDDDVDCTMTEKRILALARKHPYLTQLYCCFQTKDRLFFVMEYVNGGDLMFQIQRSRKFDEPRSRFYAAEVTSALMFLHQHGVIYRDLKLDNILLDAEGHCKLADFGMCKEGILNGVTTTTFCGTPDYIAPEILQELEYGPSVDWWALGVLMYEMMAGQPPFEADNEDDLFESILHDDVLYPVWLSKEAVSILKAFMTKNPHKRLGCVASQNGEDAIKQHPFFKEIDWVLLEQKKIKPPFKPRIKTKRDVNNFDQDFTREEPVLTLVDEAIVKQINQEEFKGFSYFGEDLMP

[12] = molecular target: T9, PLK4 (Homo sapiens, UniProt O00444); conditions: 1 μM, duplicate, without preincubation; cited from earlier work
T9 construct: literature Ambit Biosciences
T9 sequence (O00444 1-970): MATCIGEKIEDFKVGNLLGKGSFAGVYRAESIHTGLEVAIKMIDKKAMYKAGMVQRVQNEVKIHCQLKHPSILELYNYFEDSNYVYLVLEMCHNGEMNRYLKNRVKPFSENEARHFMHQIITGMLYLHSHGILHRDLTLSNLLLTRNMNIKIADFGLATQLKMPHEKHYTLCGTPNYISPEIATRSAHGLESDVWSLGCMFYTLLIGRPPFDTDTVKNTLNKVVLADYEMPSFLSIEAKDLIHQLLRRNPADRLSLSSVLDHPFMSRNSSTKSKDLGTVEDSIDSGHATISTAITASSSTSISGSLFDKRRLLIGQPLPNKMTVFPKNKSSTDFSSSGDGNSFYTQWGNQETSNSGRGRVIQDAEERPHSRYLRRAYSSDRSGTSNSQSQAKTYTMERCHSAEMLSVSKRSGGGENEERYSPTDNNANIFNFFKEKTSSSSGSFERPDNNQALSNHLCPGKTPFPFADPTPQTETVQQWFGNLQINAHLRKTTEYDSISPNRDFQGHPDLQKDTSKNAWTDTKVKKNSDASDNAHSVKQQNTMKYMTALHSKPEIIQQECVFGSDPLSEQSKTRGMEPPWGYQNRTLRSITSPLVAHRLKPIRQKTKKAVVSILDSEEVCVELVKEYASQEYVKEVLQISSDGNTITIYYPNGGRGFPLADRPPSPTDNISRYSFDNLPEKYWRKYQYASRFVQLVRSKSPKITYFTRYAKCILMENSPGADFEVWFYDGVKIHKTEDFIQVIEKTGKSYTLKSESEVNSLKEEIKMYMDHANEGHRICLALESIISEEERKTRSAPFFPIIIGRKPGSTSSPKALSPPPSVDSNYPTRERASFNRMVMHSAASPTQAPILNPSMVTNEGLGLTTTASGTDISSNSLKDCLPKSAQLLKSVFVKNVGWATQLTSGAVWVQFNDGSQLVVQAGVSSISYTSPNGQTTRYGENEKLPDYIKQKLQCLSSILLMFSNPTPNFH

[13] = molecular target: T10, p38-alpha (Homo sapiens, UniProt Q16539); conditions: 1 μM, duplicate, without preincubation; cited from earlier work
T10 construct: literature Ambit Biosciences

[14] = molecular target: T11, CDK7 (Homo sapiens, UniProt P50613); conditions: 1 μM, duplicate, without preincubation; cited from earlier work
T11 construct: literature Ambit Biosciences

[15] = molecular target: T12, RAF1 (Homo sapiens, UniProt P04049); conditions: 1 μM, duplicate, without preincubation; cited from earlier work
T12 construct: literature Ambit Biosciences

[16] = molecular target: T13, DCAMKL1 (Homo sapiens, UniProt O15075); conditions: 1 μM, duplicate, without preincubation; cited from earlier work
T13 construct: literature Ambit Biosciences
T13 sequence (O15075 1-740): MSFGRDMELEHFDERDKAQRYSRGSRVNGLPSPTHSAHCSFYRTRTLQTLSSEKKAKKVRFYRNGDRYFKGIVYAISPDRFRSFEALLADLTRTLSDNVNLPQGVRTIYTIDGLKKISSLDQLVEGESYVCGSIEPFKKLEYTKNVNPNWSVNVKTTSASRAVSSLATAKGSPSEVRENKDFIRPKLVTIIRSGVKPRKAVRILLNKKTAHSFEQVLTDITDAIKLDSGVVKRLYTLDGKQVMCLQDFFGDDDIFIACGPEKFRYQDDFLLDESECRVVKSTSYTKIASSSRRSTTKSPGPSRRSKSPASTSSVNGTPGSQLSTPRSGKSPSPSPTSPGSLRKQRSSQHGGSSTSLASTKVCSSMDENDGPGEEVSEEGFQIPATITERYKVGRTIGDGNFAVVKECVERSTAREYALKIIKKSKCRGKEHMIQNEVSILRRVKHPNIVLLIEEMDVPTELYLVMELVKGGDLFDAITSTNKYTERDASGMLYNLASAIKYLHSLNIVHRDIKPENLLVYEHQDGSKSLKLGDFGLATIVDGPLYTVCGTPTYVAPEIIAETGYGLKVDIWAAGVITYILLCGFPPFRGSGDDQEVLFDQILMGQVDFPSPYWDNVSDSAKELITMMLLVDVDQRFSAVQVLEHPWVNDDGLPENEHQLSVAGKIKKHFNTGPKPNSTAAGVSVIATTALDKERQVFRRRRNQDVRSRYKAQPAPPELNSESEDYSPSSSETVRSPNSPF

[17] = molecular target: T14, CSF1R (Homo sapiens, UniProt P07333); conditions: 1 μM, duplicate, without preincubation; cited from earlier work
T14 construct: literature Ambit Biosciences

[18] = molecular target: T1, BRAF(V600E); set-up: literature Ambit Biosciences; conditions: 1 μM, duplicate, without preincubation; cited from earlier work
[19] = molecular target: T15, p38-beta (Homo sapiens, UniProt Q15759); conditions: 1 μM, duplicate, without preincubation; cited from earlier work
T15 construct: literature Ambit Biosciences

[20] = molecular target: T16, IKK-beta (Homo sapiens, UniProt O14920); conditions: 1 μM, duplicate, without preincubation; cited from earlier work
T16 construct: literature Ambit Biosciences

[21] = molecular target: T17, BTK (Homo sapiens, UniProt Q06187); conditions: 1 μM, duplicate, without preincubation; cited from earlier work
T17 construct: literature Ambit Biosciences

[22] = molecular target: KIT (Homo sapiens, UniProt P10721); conditions: 1 μM, duplicate, without preincubation; cited from earlier work
Sequence of KIT (P10721 26-976): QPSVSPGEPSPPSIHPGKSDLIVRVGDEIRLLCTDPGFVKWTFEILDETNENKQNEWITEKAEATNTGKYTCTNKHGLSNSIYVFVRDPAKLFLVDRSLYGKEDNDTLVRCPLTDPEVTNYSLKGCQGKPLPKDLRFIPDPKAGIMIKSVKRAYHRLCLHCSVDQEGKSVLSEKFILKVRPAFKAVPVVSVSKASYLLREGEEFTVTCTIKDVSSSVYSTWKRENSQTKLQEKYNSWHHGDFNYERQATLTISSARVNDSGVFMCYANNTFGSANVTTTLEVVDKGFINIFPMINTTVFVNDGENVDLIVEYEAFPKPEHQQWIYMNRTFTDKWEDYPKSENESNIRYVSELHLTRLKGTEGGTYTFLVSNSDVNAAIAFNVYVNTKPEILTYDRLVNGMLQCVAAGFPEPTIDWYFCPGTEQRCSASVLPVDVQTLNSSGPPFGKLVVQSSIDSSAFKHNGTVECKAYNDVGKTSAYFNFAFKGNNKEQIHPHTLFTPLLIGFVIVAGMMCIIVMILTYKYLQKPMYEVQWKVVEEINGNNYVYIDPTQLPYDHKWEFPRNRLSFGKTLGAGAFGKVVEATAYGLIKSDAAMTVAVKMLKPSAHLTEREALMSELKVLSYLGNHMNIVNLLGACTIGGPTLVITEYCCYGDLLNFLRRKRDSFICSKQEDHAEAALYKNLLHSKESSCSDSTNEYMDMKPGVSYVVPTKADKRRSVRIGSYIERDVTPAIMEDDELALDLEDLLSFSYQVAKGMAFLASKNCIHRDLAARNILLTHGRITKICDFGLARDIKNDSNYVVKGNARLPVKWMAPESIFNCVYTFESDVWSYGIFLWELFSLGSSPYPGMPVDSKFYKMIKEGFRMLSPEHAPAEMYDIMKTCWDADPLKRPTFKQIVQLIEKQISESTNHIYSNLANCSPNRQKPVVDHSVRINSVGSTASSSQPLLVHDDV

T1 sequence (P15056 whole entry V600E): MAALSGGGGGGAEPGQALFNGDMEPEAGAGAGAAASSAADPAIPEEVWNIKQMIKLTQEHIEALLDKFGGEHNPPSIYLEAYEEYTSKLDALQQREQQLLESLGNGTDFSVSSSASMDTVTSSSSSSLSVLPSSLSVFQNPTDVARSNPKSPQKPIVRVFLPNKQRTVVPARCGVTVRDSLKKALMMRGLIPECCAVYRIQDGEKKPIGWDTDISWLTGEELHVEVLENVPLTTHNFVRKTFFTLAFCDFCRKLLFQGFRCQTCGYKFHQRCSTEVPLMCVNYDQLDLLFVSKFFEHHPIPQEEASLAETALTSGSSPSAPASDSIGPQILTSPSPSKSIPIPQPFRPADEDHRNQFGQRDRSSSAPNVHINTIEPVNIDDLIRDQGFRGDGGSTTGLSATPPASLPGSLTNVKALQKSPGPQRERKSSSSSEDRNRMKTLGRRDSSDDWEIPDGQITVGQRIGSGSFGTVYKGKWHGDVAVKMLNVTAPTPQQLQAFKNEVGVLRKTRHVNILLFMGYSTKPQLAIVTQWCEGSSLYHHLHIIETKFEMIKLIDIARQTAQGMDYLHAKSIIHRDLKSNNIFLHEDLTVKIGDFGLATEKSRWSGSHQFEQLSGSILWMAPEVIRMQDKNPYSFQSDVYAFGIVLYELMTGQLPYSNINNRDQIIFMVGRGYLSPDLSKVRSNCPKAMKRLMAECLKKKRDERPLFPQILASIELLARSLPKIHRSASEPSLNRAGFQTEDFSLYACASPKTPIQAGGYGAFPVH
Sequence of wild type B-Raf (P15056 whole entry): as the sequence (P15056 whole entry V600E) above, with E600V counted along it
T4 sequence (P15056 whole entry): as the sequence (P15056 whole entry V600E) above, with E600V counted along it
T3 sequence (O60674 849-1124 limits assumed): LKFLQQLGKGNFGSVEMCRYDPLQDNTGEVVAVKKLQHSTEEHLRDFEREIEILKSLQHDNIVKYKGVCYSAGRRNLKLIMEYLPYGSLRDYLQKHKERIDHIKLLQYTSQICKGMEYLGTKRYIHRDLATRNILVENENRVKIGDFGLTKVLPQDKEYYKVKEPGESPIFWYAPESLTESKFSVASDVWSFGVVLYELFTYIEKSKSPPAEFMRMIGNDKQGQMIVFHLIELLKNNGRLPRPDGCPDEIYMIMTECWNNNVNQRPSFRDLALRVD
T16 sequence (O14920 whole entry): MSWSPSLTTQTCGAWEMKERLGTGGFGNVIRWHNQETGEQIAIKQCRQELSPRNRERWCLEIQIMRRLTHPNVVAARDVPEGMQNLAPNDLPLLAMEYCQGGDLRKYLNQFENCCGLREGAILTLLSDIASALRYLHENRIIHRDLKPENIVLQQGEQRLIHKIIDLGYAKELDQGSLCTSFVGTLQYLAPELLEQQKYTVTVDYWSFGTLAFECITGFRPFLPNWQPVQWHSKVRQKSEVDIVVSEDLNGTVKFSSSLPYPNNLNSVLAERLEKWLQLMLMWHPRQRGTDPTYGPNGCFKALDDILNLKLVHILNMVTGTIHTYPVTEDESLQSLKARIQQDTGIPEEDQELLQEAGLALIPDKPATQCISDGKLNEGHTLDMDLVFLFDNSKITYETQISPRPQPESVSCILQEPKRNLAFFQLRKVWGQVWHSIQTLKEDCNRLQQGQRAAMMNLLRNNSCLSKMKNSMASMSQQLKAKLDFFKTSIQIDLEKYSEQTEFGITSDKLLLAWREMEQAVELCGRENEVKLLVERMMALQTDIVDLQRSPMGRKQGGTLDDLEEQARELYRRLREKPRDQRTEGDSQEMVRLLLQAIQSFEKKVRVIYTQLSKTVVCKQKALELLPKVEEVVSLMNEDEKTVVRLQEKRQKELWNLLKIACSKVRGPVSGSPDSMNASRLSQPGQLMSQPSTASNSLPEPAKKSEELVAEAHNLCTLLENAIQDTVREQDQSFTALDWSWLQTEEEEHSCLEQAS
T10 sequence (Q16539 whole entry): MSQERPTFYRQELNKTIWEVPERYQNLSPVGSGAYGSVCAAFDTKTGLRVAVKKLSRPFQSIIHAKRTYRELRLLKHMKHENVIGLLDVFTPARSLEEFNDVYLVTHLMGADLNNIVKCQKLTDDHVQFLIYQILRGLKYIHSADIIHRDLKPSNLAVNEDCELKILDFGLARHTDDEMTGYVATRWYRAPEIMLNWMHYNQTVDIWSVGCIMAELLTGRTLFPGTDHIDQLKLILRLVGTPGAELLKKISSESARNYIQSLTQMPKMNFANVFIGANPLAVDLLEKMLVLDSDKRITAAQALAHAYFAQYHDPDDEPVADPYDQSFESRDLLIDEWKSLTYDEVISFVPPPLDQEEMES
T15 sequence (Q15759 whole entry): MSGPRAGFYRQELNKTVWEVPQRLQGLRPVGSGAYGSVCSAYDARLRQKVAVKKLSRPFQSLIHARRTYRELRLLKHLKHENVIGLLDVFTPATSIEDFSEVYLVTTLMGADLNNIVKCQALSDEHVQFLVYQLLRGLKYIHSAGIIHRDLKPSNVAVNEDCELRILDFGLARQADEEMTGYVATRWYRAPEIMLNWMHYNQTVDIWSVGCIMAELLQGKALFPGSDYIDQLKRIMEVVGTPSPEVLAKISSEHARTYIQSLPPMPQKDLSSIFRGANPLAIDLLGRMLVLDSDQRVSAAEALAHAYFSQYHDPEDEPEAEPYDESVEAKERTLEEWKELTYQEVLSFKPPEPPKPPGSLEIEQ
T14 sequence (P07333 20-972): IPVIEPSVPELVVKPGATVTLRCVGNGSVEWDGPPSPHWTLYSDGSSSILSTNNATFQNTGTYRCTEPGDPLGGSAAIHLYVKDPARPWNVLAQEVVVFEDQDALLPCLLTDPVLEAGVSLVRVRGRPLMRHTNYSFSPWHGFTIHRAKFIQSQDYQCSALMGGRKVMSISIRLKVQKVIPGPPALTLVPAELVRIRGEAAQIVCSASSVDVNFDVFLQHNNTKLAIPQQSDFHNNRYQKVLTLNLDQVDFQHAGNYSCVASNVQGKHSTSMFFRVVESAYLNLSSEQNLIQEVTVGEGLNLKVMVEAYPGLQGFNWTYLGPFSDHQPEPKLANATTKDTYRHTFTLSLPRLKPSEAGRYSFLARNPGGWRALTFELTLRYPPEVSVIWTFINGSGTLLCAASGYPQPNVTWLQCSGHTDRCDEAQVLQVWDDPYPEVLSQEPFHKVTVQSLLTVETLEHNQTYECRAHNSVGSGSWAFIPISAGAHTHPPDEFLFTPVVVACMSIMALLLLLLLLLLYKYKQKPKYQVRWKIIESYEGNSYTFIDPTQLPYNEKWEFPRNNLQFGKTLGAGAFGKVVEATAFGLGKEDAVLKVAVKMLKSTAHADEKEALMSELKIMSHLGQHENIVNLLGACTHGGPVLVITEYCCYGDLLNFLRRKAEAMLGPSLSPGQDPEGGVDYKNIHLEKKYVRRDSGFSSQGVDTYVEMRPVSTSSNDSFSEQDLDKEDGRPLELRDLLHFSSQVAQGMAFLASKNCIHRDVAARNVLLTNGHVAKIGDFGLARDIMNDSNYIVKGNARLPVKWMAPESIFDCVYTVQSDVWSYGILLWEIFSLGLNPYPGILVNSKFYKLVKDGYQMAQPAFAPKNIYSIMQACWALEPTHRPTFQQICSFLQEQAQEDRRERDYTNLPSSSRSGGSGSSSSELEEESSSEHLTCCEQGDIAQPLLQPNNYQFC
T7 sequence (Q9BWU1 whole entry): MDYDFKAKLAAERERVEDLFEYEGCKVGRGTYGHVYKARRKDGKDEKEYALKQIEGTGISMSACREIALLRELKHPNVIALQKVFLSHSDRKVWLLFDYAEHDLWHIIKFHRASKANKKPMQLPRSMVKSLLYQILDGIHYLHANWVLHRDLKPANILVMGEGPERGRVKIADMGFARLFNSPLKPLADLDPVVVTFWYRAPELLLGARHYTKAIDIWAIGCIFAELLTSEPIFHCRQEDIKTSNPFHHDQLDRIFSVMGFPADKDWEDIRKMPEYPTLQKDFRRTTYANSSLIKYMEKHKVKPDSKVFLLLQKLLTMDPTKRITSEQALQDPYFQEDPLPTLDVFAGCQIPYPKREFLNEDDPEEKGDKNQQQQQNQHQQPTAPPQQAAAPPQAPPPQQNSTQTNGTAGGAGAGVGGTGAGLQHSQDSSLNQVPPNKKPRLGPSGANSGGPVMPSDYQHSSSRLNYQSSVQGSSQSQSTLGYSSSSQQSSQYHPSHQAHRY

more potent against the mutant verses wild type B-Raf ([2]; B-Raf(V600E) vs wild type B-Raf): approximately 80 fold
increase in potency vs KIN-0035 ([2]; LanthaScreen assay, IC50 ratio): 10 fold
IC50 ([2]; LanthaScreen assay, side by side comparison): 6.6 nM
IC50 [4]: ~500 nM
SMILES: Cc1ccc(NC(=O)c2nc(S(C)(=O)=O)[nH]c2-c2ccc(F)cc2)cc1Nc1ccc2ncn(C)c(=O)c2c1 [Inhibitor I-13, 3-(3-methyl-4-oxo-3,4-dihydroquinazolin-6-ylamino)-4-methyl-analine, 5-(4-Fluorophenyl)-2-(methylsulfonyl)-1H-imidazole-4-carboxamide]
change of IC50 value with preincubation ([2]; several hour preincubation period): appeared to decrease over a several hour preincubation period
real time kinetic data with B-Raf(V600E) [3]: consistent with either extremely tight binding or irreversible inhibition
real time kinetic data with B-Raf(V600E) ([3]; listed as SFE-0013): consistent with extremely tight or irreversible inhibition

selectivity in kinase panel ([1]; panel of 220 kinases, 5 μM): extremely selective for p38-α
SMILES: Cc1ccc(NC(=O)c2nc(C(F)(F)F)[nH]c2-c2ccc(F)cc2)cc1NC(=O)c1c[nH]c2ncccc12 [Inhibitor I-11, 1H-7-Azaindole-3-carboxylic acid (5-{[5-(4-fluoro-phenyl)-2-trifluoromethyl-3H-imidazole-4-carbonyl]-amino}-2-methyl-phenyl)-amide]

Second part, the molecule before the results:

SMILES: O=C(Nc1ccncc1)c1cc(NC(=O)c2nc(C(F)(F)F)[nH]c2-c2ccc(F)cc2)ccc1Cl [Inhibitor I-2, 5-(4-Fluoro-phenyl)-2-trifluoromethyl-3H-imidazole-4-carboxylic acid [4-chloro-3-(pyridin-4-ylcarbamoyl)-phenyl]-amide]
activity against any of the kinases tested [1]: no significant activity

SMILES: O=C(Nc1ccc(Oc2ccnc3[nH]c(=O)[nH]c23)cc1)c1nc(C(F)(F)F)[nH]c1-c1ccc(F)cc1 [Inhibitor I-12, 4-(4-{[5-(4-Fluoro-phenyl)-2-trifluoromethyl-3H-imidazole-4-carbonyl]-amino}-phenoxy)-pyridine-2,3-benzimidazolone carboxylic acid methylamide]
number of panel kinases at >25% inhibition ([1]; panel of 220 kinases, 5 μM): 72 kinases
number of panel kinases with greater than 50% inhibition ([1]; panel of 220 kinases, 5 μM): 45 kinases

SMILES: O=C(Nc1ccccn1)c1cc(NC(=O)c2nc(C(F)(F)F)[nH]c2-c2ccc(F)cc2)ccc1Cl [Inhibitor I-1, 5-(4-Fluoro-phenyl)-2-trifluoromethyl-3H-imidazole-4-carboxylic acid [4-chloro-3-(pyridin-2-ylcarbamoyl)-phenyl]-amide]
activity against any of the kinases tested [1]: no significant activity

SMILES: Cc1ccc(NC(=O)c2[nH]c(C(F)(F)F)nc2-c2ccc(F)c(F)c2)cc1Nc1ccc2ncn(C)c(=O)c2c1 [KIN-057]
inhibition of PDGFRB [5]: XXX (XXX > 75% @ 1 μM)
inhibition of JAK2 (catalytic) [6]: X (X > 25% @ 1 μM)
inhibition of BRAF [7]: XXX (XXX > 75% @ 1 μM)
inhibition of ULK2 [8]: X (X > 25% @ 1 μM)
inhibition of PDGFRA [9]: X (X > 25% @ 1 μM)
inhibition of CDK11 [10]: XX (XX > 50% @ 1 μM)
inhibition of PRKCE [11]: X (X > 25% @ 1 μM)
inhibition of PLK4 [12]: X (X > 25% @ 1 μM)
inhibition of p38-alpha [13]: XXX (XXX > 75% @ 1 μM)
inhibition of CDK7 [14]: X (X > 25% @ 1 μM)
inhibition of RAF1 [15]: XXXX (XXXX > 90% @ 1 μM)
inhibition of DCAMKL1 [16]: X (X > 25% @ 1 μM)
inhibition of CSF1R [17]: X (X > 25% @ 1 μM)
inhibition of BRAF(V600E) [18]: XXX (XXX > 75% @ 1 μM)
inhibition of p38-beta [19]: X (X > 25% @ 1 μM)
inhibition of IKK-beta [20]: X (X > 25% @ 1 μM)
inhibition of BTK [21]: X (X > 25% @ 1 μM)
inhibition of KIT [22]: XXX (XXX > 75% @ 1 μM)
